row,SMILES,melting point
1,Cc1noc(NS(=O)(=O)c2ccccc2-c2ccc(-c3ncco3)cc2CN(C)C(=O)C(C)(C)c2ccccc2)c1C,130 to 138 °C
2,CCn1cc(-c2cc(-c3nc(C(C)C)[nH]c3-c3cccc(C)n3)ccc2F)cn1,76 to 78 °C
3,COc1ccc(C#CC(=Nc2ccc(OC)cc2)N2CCN(Cc3ccccc3)CC2)cc1,161 °C
4,CC(=O)NCC1CN(c2ncccc2Cl)C1,109 to 111 °C
5,COC1=CC(=O)C(Br)=CC1=O,184 to 186 °C
6,COC(=O)Oc1ccc(C=Nc2ccc(C#N)cc2)cc1,139 °C
7,COC(=O)c1nc(Cl)c(F)c(N)c1Br,138 to 139 °C
8,CC(C)(C)OC(=O)NC(CC1CCCCC1)C(O)C(O)C(CC1CCCCC1)NC(=O)OC(C)(C)C (configuration not stated),224 to 226 °C
9,CNC1=NS(=O)N=C1NCCCN(Cc1ccccc1)c1ccccn1 (configuration not stated),122 to 123 °C
10,Cc1c(Cl)ccc2c3cccc(C(=O)O)c3n(C)c12,237 °C
11,COc1ccc(-c2cc3ccc(C)cc3[nH]2)cc1,220 °C
12,CN(C)CCCC1(O)c2ccccc2OC12CCCCCC2 (configuration not stated),96 to 98.5 °C
13,COC(=O)c1ccc(CC(=O)c2cc(OC)c3c(c2)C(C)(C)CCC3(C)C)cc1,143 to 144 °C
14,CNC(=O)ON=C1SCOC1COC (configuration not stated),105 to 106 °C
15,O=C(N1CCCC1)n1c(CN2CCN(c3ccccn3)CC2)nc2ccccc21,120 to 121 °C
16,C=Cc1cccc(C(=O)NC(Nc2c(Nc3cccnc3)c(=O)c2=O)C(C)(C)C)c1 (configuration not stated),209 to 210 °C
17,Cc1ccc2c(=O)c3cc(F)ccc3sc2c1,166 to 170 °C
18,Cc1cc(=O)[nH]c(=S)n1C1CCCCC1,240 to 243 °C
19,Cc1cc(Cl)ccc1CCN(C(=O)C(C)Cl)c1ccccc1 (configuration not stated),128 °C
20,CCCCc1nc2cccc(C(=O)OC)c2n1Cc1ccc(-c2ccccc2-c2nc(=S)o[nH]2)cc1,180 to 181 °C
21,CCOC(=O)c1cnc(N(CC)Cc2ccc3nc(C)[nH]c(=O)c3c2)s1,188 to 192 °C
22,Cc1cc(Cn2c(-c3ccccc3)nc(Cl)c2C=O)ccc1OCc1ccccc1,135 to 136 °C
23,COc1ccccc1Cc1ccc2nc(N)nc(N)c2c1,214 to 215 °C
24,O=C1OC(=O)c2c1cccc2C(Cl)(Cl)Cl,121 to 124 °C
25,Cn1cc(-c2cccc(C(F)(F)F)c2)c(=O)c(C2CCCCC2)c1,174 to 175 °C
26,C=CCC(C(=O)OC)(C(=O)OC)C(Cc1ccccc1N)c1ccc(OC)cc1 (configuration not stated),117 to 118 °C

row,SMILES,melting point
1,CCCOC(=O)c1c(CSc2nccn2C)nc2cc(OC)c(OC)cc2c1-c1ccc(OC)c(OC)c1,131 to 132 °C
2,NS(=O)(=O)c1cccc(NC(=O)c2cnn3ccc(-c4ccc(Cl)cc4)nc23)c1,345 °C
3,c1ccc(COc2ccc(Nc3ccn(-c4ccccc4)n3)cc2)cc1,145 to 146 °C
4,Cc1nnc2n1-c1ccc(Cl)cc1C(c1ccccc1)S2 (configuration not stated),237 °C
5,COC(=O)c1ccc(CCC(C)NCC(O)c2cc3ccccc3o2)cc1 (configuration not stated),104 to 108 °C
6,CCCCCCc1cc2c(cc1C(=O)Oc1ccc(C(=O)O)cn1)CCCCC2(C)C,119 to 120 °C
7,COc1cc(OC)nc(Oc2ccccc2C(=O)ON(C)C)n1,71 to 72.5 °C
8,CCC1(Cc2ccc(O)cc2)NC(=O)NC1=O (configuration not stated),236 to 238 °C
9,O=c1c2ccc(Cl)cc2[nH]c2c(O)nn(CC#Cc3ccc(Cl)cc3)c(=O)c12,251 to 252 °C
10,Cc1csc(C)c1S(N)(=O)=O,135 °C
11,Cc1nc(OC(F)F)nc(C)c1N1CCCn2c1nc1c(Cl)ccc(C(OC(F)F)C(F)(F)F)c12 (configuration not stated),165 to 166 °C
12,COc1ccc(-n2c(=O)cc(C)c3c(=O)n(-c4ccccc4)[nH]c32)cc1,189 to 190 °C
13,CCOC(=O)N1CCN(CCNc2ncnc3c2sc2nc(-c4ccco4)c4c(c23)CC(C)(C)CC4)CC1,99.1 to 101 °C
14,COc1ccccc1C1=NN(C(=O)c2cccnc2)CC1C (configuration not stated),124 to 125 °C
15,CCCN1N=C2C(=Cc3ccccc3)COCC2C1c1ccccc1 (configuration not stated),114 to 115 °C
16,O=C(NCNC(=O)c1ccccc1C(=O)C1CCCCC1)OCc1ccccc1,152 to 155 °C
17,COc1ccc(C(=O)C=Cc2ccc(SC)cc2)cc1,112 °C
18,CCCc1nn(-c2ccc(C(F)(F)F)cn2)cc1CCCOc1c(CC(=O)O)cccc1C(C)C,102 to 103 °C
19,Cc1cc(C2(C(F)(F)F)CC(c3ccc(Cl)cc3)=NO2)ccc1N (configuration not stated),118 to 119 °C
20,Cc1nc(N)ccc1-c1ccncc1,207 to 209 °C
21,CC(=CC(=O)NCc1cccc(CNC(=O)C=C(C)C(=O)O)c1)C(=O)O,148 to 150 °C
22,NCC1Cc2cc(Cl)cc(-c3cc(Cl)ccc3Cl)c2O1 (configuration not stated),160 to 162 °C
23,C=CCc1c(O)cc(O)c(C)c1C(=O)OC,72 to 95 °C
24,COc1ccc(-n2cc(C)cc2-c2ccc(S(N)(=O)=O)cc2)cc1,63 to 64 °C
25,Cc1cc(-n2ccnc2)c2cccc(OCc3c(Cl)ccc(S(=O)(=O)N4CCC[C@H]4C(=O)NCC4CCN(CCCC(=O)O)CC4)c3Cl)c2n1,178 °C
26,CN(C)CCOc1cccc2cc(C(=O)Nc3ccccc3N)oc12,108 to 118 °C

row,SMILES,melting point
1,COc1ccc2nc(C3=CCN(Cc4ccc(Cl)cc4)CC3)[nH]c2c1,203 to 205 °C
2,Cc1ccc2c(c1)C(CC(=O)NO)N(c1ccccc1)S2(=O)=O (configuration not stated),150 to 155 °C
3,Cc1nnc2n1-c1ccc(C#C[Si](C)(C)C)cc1C(c1ccccc1)=NC2,229 to 233 °C
4,O=C(NCCCN1CCN(Cc2ccccc2)CC1)Nc1ccccc1,45 to 47 °C
5,CCCSc1ncc(C(C)C(=O)O)n1Cc1ccccc1Cl (configuration not stated),170 to 172 °C
6,COC(=O)CCCC(Cl)C1SCC2NC(=O)N(Cc3ccccc3)C21 (configuration not stated),141 to 142 °C
7,CCCCCCCCCCCCCCOc1ccc(CC(=O)O)cc1,86 to 87 °C
8,CCCCCCCCN(C)C(=O)CC(=O)N(C)CCCCCCCC,41 °C
9,CC1(C)CC(S(=O)(=O)Cc2c(C(F)(F)F)nn(-c3ccccc3)c2Cl)=NO1,132 to 133 °C
10,CCNC(=O)n1nc(Oc2ncc(C(F)(F)F)cc2Cl)cc1C(F)(F)F,52 to 54 °C
11,Cc1ccsc1C(=O)Nc1ccc(-n2nc(C(F)(F)F)cc2C(F)(F)F)cc1,185 to 188 °C
12,COc1ccc(-c2nc3c(OC(C)=O)cccc3s2)cc1,122 to 124 °C
13,CCOC1C(NC(=O)C(F)(F)F)CC(OC)OC1C (configuration not stated),183 to 185 °C
14,COc1ccc(CCC2SC(=O)NC2=O)c2ccc(=O)n(C)c12 (configuration not stated),222 to 224 °C
15,O=C1C(=O)c2ccccc2C2=C1SCC1(CCN(CCCOc3ccccc3)CC1)O2,127 to 129 °C
16,COc1cc(OC)c(/C=C/C(=O)Nc2ccc(OC)c(N)c2)c(OC)c1,92 to 94 °C
17,CO/C=C1/C(=O)NC(=O)c2ccc(-n3cccc3)cc21,272 to 273 °C
18,CSC(=C[N+](=O)[O-])NCCSCc1ccco1,68 to 70 °C
19,O=C(N[C@H]1CC[C@H](CCN2CCN(c3nccc4c3CCO4)CC2)CC1)c1ccc(-c2ccccc2)cc1,232 °C
20,CCN(CC)C(=O)c1cc(-n2c(=O)cc(C(F)(F)F)[nH]c2=O)c(F)cc1Cl,253 to 254 °C
21,COc1cc2c(Cl)c(C(=O)Cl)sc2cc1OCc1ccccc1,144 to 152 °C
22,COc1nc(C)c(C)nc1NC(=O)N1CCN(c2c(C)c(C)cc(C)c2C)CC1,202 to 204 °C
23,CC(=O)NC(=O)CSC(=O)c1ccco1,103 to 105 °C
24,COc1ccc(CCc2nc3ccccc3c(=O)n2CCN(C)C)cc1,73.5 to 74.5 °C
25,ON=Cc1ccc(-c2ccc(O)cc2)cc1,207 to 210 °C
26,CN1Cc2cncn2-c2cccc(Br)c2C1=O,196 to 197 °C

row,SMILES,melting point
1,CC1Sc2c(C(=O)O)c(=O)c3cc(F)c(N4CCC(O)C4)cc3n21 (configuration not stated),206 to 208 °C
2,CC(=O)OC1Cc2ccc(F)cc2/C1=C/C(N)=O (configuration not stated),202 to 203 °C
3,"COCN1C(C)=C(C(=O)OC)C(c2cccc(Cl)c2Cl)C(C(=O)OCOC(=O)C(C)(C)C)=C1C (single isomer, unassigned; (+))",149 to 150 °C
4,CN(C)c1ccc(CCBr)cc1,45 to 46 °C
5,CC[C@H]1Oc2ccccc2C(=O)N2CCC[C@@H]12,118 to 119 °C
6,CC(=O)Nc1c(C)c(C)c2c(c1[N+](=O)[O-])CC(C)(C)O2,203 °C
7,Nc1c(Br)cc(S(N)(=O)=O)cc1C(F)(F)F,248 to 252 °C
8,CCOC(=O)C(C#N)=CNc1ccc(OC)c(OC)c1,150 to 155 °C
9,CCCC1=C(C(=O)OCC)C(c2cccc3nonc23)c2c[nH]nc2N1 (configuration not stated),207 °C
10,O=C(NCCN1CCCCC1n1c(=O)[nH]c2ccccc21)c1cccc(F)c1 (configuration not stated),226 °C
11,COc1ccc(CNC(=O)C(=O)NCCc2ccccn2)c(OC)c1,123 to 124 °C
12,Cc1c(CNCC(C)(C)C)n(C)c2ccc(NC(=O)c3ccc(OCC4CC4)cc3)cc12,169 to 170 °C
13,COC(=O)C1C=C2c3cccc4[nH]c(Br)c(c34)CC2N(C)C1 (configuration not stated),124 to 125 °C
14,COc1ccc2c(c1)c1c(n2C)CCCC1=O,150 to 151 °C
15,O=c1n(C2CCCCC2)c2cc(Cl)ccc2n1S(=O)(=O)c1ccc([N+](=O)[O-])cc1,162 °C
16,COC(CCOS(=O)(=O)c1ccc(C)cc1)CCOS(=O)(=O)c1ccc(C)cc1,58 °C
17,CCN(CC)CC1CCn2c(nc3ccccc32)S1 (configuration not stated),93 to 94 °C
18,CCCCCCCCCCCCCCCCC(N)C(O)CO (configuration not stated),92 to 93 °C
19,CCc1c2c(nn1C)c(N)nc1ccccc12,257 to 259 °C
20,CC(C)(C)OC(=O)N[C@@H](Cc1ccc(-c2ccccc2)cc1)c1nnnn1CCC#N,184 to 185 °C
21,CCC(=S)N1CCC[C@H]1C(=O)O,123 to 124 °C
22,COc1ccc(C2(c3ccc(OC)cc3)CCN(CC[C@H]3CN(C)[C@@H]4Cc5c[nH]c6cccc(c56)[C@@]4(OC)C3)CC2)cc1,129 to 136 °C
23,C#CCn1c(-c2ccccc2)nc(CC)c(O)c1=O,152 to 154 °C
24,CC(C)(C)NC(=O)[C@@H]1CCCN1C(=O)[C@@H](O)[C@H](Cc1ccccc1)NC(=O)[C@H](CC(N)=O)NC(=O)COC1CCN(Cc2ccccc2)CC1,94 to 103 °C
